In brackets after ≈: the same amount, converted by molar mass. One block for each compound: values may come before it.
Experiments:
[1] = Measurement of solubility in buffer at pH 6.5; type: physicochemical; settings: aqueous buffer, kinetic from dmso stock; PBS buffer pH 6.5, shaken 24 h at rt, LC-MSMS; read-out: Solubility of example compounds at pH 6.5
Procedure: Measurement of Solubility in Buffer at pH 6.5 2-4 mg of the test compound are dissolved in DMSO to reach a concentration of 50 g/L (solution A). To 10 μL of this solution 960 μL PBS buffer pH 6.5 are added (final concentration: […]); the mixture is shaken for 24 h at rt in a 96 well plate. An aliquot is centrifuged at 42000 rpm für 30 min. The supernatant is diluted with acetonitrile/water (8:2) 1:10 and 1:1000 resp. This diluted samples are analyzed by LC-MSMS. Calibration: 10 μL of solution A are diluted with 823 μL DMSO (final concentration: 600 μg/mL), which is further diluted with acetonitrile/water 8:2 by a factor of 100 (provides solution B). The calibration curve is obtained from solution B by further diluting with acetonitrile/water 8:2 with target concentrations of 1.2-12-60-600 ng/mL and injecting these four solutions for MS measurement. PBS-Puffer: 6.18 g sodium chloride and 3.96 g sodium dihydrogen phosphate are dissolved in 1 L aqua dist., the pH is adjusted to 6.5 with IN sodium hydroxide.

[2] = Measurement of stability of prodrugs in buffer at pH 7.4; type: physicochemical; settings: PBS buffer pH 7.4, 37° C., HPLC peak area, read-out: % Recovery after 24 h (stability at pH 7.4)
Procedure: Preparation of the PBS buffer solution pH 7.4: 90 g sodium chloride, 13.61 g potassium dihydrogen phosphate, 83.35 g 1M aqueous sodium hydroxide were dissolved in water. More water was added up to a total volume of 1 L. This solution was diluted 1:10 with water. Eventually, pH was adjusted to pH 7.4 by the addition of phosphoric acid.
Measurement of Stability of Prodrugs in Buffer at pH 7.4
0.15 mg of the test compound were dissolved in 0.1 mL dimethylsulfoxide and 0.4 mL acetonitrile. For complete dissolution, the HPLC vial with the sample solution was shaken and treated with ultrasound. Then, 1.0 mL of PBS buffer solution pH 7.4 was added and the sample was vortexed. The sample solution was analysed by HPLC (method 8) to determine the amount of the test compound at a particular time over a period of 24 h at 37° C. The peak areas, given as percentage of total area, are used for quantification. In addition, the reaction mixture was analysed by method 9 (HPLC-MS) at the final timepoint.

[3] = Degradation of prodrugs and release of parent drug in rat plasma; type: in vitro ADME; settings: male, Hannover-Janvier RjHan, rat plasma (Li-heparin), 37° C., percent area of prodrug at t0
Procedure: Measurement of Release of Parent Drug in Rat Plasma 1 mg of the test compound was dissolved in 0.5 mL acetonitrile/dimethylsulfoxide 9:1. For complete dissolution the HPLC vial was shaken and treated with ultrasound. 20 μL of this solution were added to 1 mL of rat plasma (Li-heparin plasma, Hannover-Janvier rat, RjHan male) with vortexing at a temperature of 37° C. Aliquots (100 μL each) were taken at 0.17, 0.5, 1, 1.5, 2 and 4 hours. Each aliquot was transferred to a vial containing 300 μL of acetonitrile/citric acid buffer pH 3 8:2. These solutions were centrifuged at 5000 rpm for 10 minutes. The supernatant was analysed by HPLC (Method 8) to determine the amount of the test compound. In addition, the reaction mixture was analysed by method 9 (HPLC-MS) at the final timepoint. Both decrease of the prodrug concentration and increase of parent drug concentration were monitored. All data is given as percent area of the prodrug at to.

[4] = Evaluation of pharmacokinetics in vivo (rat); settings: concentration of Parent Drug A after admin. of the named substance
Procedure: (§1) Evaluation of Pharmacokinetics (In Vivo) To evaluate the pharmacokinetics of test substances in vivo, these test substances are dissolved in appropriate formulation vehicles (ethanol, dimethyl sulfoxide, PEG400, glycerol formal etc.), or mixtures thereof. The test substances are then administered to rats or dogs intravenously, orally or subcutaneously. The intravenous application is performed as bolus. Administered doses range usually between 0.1 to 5 mg/kg, however, doses for subcutaneous and oral administration can exceed this range up to doses of 30 mg/kg. Blood samples are retrieved via a catheter, exsanguination or venous puncture in vials containing appropriate anticoagulants, such as lithium heparinate or potassium EDTA. Plasma is generated from the blood via centrifugation. Blood samples are taken over an appropriate time interval, usually lasting up to 144 h after administration. If necessary, samples from later time points can also be taken. If possible, time points are chosen so that the initial absorption phase, the maximum plasma concentration (Cmax), and exposure within a certain time interval (AUC(0-t))aer described. Furthermore, it is possible to also retrieve organ-, tissue- and urine samples. The quantitative measurement of the test substances in the samples is performed using calibration curves in the respective matrices. The protein content of the samples is precipitated using acetonitrile or methanol. Thereafter, the samples are separated using HPLC in combination with reversed phase chromatography columns. The HPLC system is coupled to a triple quadrupole mass spectrometer via an electrospray interface. The evaluation of the plasma concentration/time profiles are afterwards evaluated using a validated pharmacokinetics evaluation program. […] Relative bioavailability (Frel) was used to describe the exposure of parent drug after prodrug administration compared to the exposure of parent drug after direct administration of compound A which was normalised to 100%.

[5] = system: Ctenocephalides felis adult; assay: Antiparasitic activity after administration to rats: fleas; type: in vivo; settings: Ctenocephalides felis adult; for In-vivo Efficacy SD2: study day 2; for In-vivo Efficacy SD9: study day 9; for In-vivo Efficacy SD16: study day 16; for In-vivo Efficacy SD23: study day 23; for In-vivo Efficacy SD30: study day 30; for In-vivo Efficacy SD37: study day 37; for In-vivo Efficacy SD42: study day 42
Procedure: (§2) Measurement of the Antiparasitic Activity after Administration of a Prodrug to Rats Compounds were dissolved in the appropriate volume of glycerol formal (p.a.) just before application to the animals (dose volume was adjusted to 0.03 mL/kg bodyweight). 5 rats per group were either injected intraperitoneally or subcutaneously. Rats were infested with 30 Dermacentor variabilis nymphs on study days −2, 7, 14, 21, 28, 35 and 30 adult Ctenocephalides fleas on study days −1, 8, 15, 22, 29, 36. Parasite counts were performed on study days 2, 9, 16, 23, 30, 37. Percent efficacy was calculated as arithmetic mean parasite numbers as life attached tick numbers and live flea numbers of the respective study group in comparison to parasite counts on a placebo-treated control group. Infestation of groups with less than 75% efficacy on two consecutive counting occasions will terminated for the respective parasite.

[6] = system: Dermacentor variabilis nymph; assay: Antiparasitic activity after administration to rats: ticks; type: in vivo; settings: Dermacentor variabilis nymph; for In-vivo Efficacy SD2: study day 2; for In-vivo Efficacy SD9: study day 9; for In-vivo Efficacy SD16: study day 16; for In-vivo Efficacy SD23: study day 23; for In-vivo Efficacy SD30: study day 30; for In-vivo Efficacy SD37: study day 37; for In-vivo Efficacy SD42: study day 42
Procedure: as §2

[7] = Evaluation of pharmacokinetics in vivo (dog)
Procedure: as §1

- solubility at 24 h [1]: 12 µg/mL (≈ 15.4 µM)
- recovery at 24 h, 0.1 mg/mL [2]: 95%
- recovery at 0.17 h, 39 µg/mL [3]: 96%
- recovery at 0.5 h, 39 µg/mL [3]: 95%
- recovery at 1 h, 39 µg/mL [3]: 93%
- recovery at 1.5 h, 39 µg/mL [3]: 92%
- recovery at 2 h, 39 µg/mL [3]: 90%
- recovery at 4 h, 39 µg/mL [3]: 86%
- AUC(0-144 h)norm of parent drug A ([4]; iv bolus): 12 kg·h/L
- AUC(0-144 h)norm of parent drug A ([4]; sc): 6.7 kg·h/L
Structure (SMILES): N#CC1(N(COC(=O)CCC(=O)O)C(=O)c2cc(-c3cnn(-c4c(Cl)cc(C(F)(C(F)(F)F)C(F)(F)F)cc4OC(F)(F)F)c3)ccc2Cl)CC1 [Example 8, 4-{[(2-Chloro-5-{1-[2-chloro-4-(1,1,1,2,3,3,3-heptafluoropropan-2-yl)-6-(trifluoromethoxy)phenyl]-1H-pyrazol-4-yl}benzoyl)(1-cyanocyclopropyl)amino]methoxy}-4-oxobutanoic acid]
- In-vivo Efficacy SD2 ([5]; 12.00 mg/kg sc): 100%
- In-vivo Efficacy SD9 ([5]; 12.00 mg/kg sc): 99%
- In-vivo Efficacy SD16 ([5]; 12.00 mg/kg sc): 100%
- In-vivo Efficacy SD23 ([5]; 12.00 mg/kg sc): 100%
- In-vivo Efficacy SD30 ([5]; 12.00 mg/kg sc): 97%
- In-vivo Efficacy SD37 ([5]; 12.00 mg/kg sc): 88%
- In-vivo Efficacy SD42 ([5]; 12.00 mg/kg sc): 78%
- In-vivo Efficacy SD2 ([6]; 12.00 mg/kg sc): 100%
- In-vivo Efficacy SD9 ([6]; 12.00 mg/kg sc): 100%
- In-vivo Efficacy SD16 ([6]; 12.00 mg/kg sc): 99%
- In-vivo Efficacy SD23 ([6]; 12.00 mg/kg sc): 100%
- In-vivo Efficacy SD30 ([6]; 12.00 mg/kg sc): 100%
- In-vivo Efficacy SD37 ([6]; 12.00 mg/kg sc): 100%
- In-vivo Efficacy SD42 ([6]; 12.00 mg/kg sc): 92%

- solubility at 24 h [1]: 5 µg/mL (≈ 5.94 µM)
- recovery at 24 h, 0.1 mg/mL [2]: 100%
- recovery at 0.17 h, 39 µg/mL [3]: 94%
- recovery at 0.5 h, 39 µg/mL [3]: 81%
- recovery at 1 h, 39 µg/mL [3]: 62%
- recovery at 1.5 h, 39 µg/mL [3]: 47%
- recovery at 2 h, 39 µg/mL [3]: 36%
- recovery at 4 h, 39 µg/mL [3]: 10%
Structure (SMILES): N#CC1(N(COC(=O)Cc2ccc(C(=O)O)cc2)C(=O)c2cc(-c3cnn(-c4c(Cl)cc(C(F)(C(F)(F)F)C(F)(F)F)cc4OC(F)(F)F)c3)ccc2Cl)CC1 [Example 15, 4-(2-{[(2-Chloro-5-{1-[2-chloro-4-(1,1,1,2,3,3,3-heptafluoropropan-2-yl)-6-(trifluoromethoxy)phenyl]-1H-pyrazol-4-yl}benzoyl)(1-cyanocyclopropyl)amino]methoxy}-2-oxoethyl)benzoic acid]
- In-vivo Efficacy SD2 ([5]; 12.96 mg/kg sc): 100%
- In-vivo Efficacy SD9 ([5]; 12.96 mg/kg sc): 100%
- In-vivo Efficacy SD16 ([5]; 12.96 mg/kg sc): 100%
- In-vivo Efficacy SD23 ([5]; 12.96 mg/kg sc): 99%
- In-vivo Efficacy SD30 ([5]; 12.96 mg/kg sc): 96%
- In-vivo Efficacy SD37 ([5]; 12.96 mg/kg sc): 81%
- In-vivo Efficacy SD42 ([5]; 12.96 mg/kg sc): 75%
- In-vivo Efficacy SD2 ([6]; 12.96 mg/kg sc): 100%
- In-vivo Efficacy SD9 ([6]; 12.96 mg/kg sc): 100%
- In-vivo Efficacy SD16 ([6]; 12.96 mg/kg sc): 100%
- In-vivo Efficacy SD23 ([6]; 12.96 mg/kg sc): 100%
- In-vivo Efficacy SD30 ([6]; 12.96 mg/kg sc): 100%
- In-vivo Efficacy SD37 ([6]; 12.96 mg/kg sc): 100%
- In-vivo Efficacy SD42 ([6]; 12.96 mg/kg sc): 96%

- AUC(0-144 h)norm of parent drug A ([4]; iv bolus): 11 kg·h/L
- AUC(0-144 h)norm of parent drug A ([4]; sc): 1.7 kg·h/L
- AUC(0-72 h)norm of parent drug A ([7]; iv bolus, concentration of Parent Drug A after admin. of the named substance): 6.0 kg·h/L
- bioavailability ([7]; plasma, sc, calculated based on AUC(0-t)norm, parent drug A normalised to 100%, read-out: Frel (relative bioavailability)): 100%
- AUC(0-384 h)norm of parent drug A ([7]; sc, concentration of Parent Drug A after admin. of the named substance): 1.0 kg·h/L
Structure (SMILES): N#CC1(NC(=O)c2cc(-c3cnn(-c4c(Cl)cc(C(F)(C(F)(F)F)C(F)(F)F)cc4OC(F)(F)F)c3)ccc2Cl)CC1 [Parent Drug A, 2-Chlor-5-{1-[2-chlor-4-(1,1,1,2,3,3,3-heptafluorpropan-2-yl)-6-(trifluormethoxy)phenyl]-1H-pyrazol-4-yl}-N-(1-cyanocyclopropyl)benzamide, reference compound]
- In-vivo Efficacy SD2 ([5]; 10 mg/kg ip): 84%
- In-vivo Efficacy SD9 ([5]; 10 mg/kg ip): 68%
- In-vivo Efficacy SD16 ([5]; 10 mg/kg ip): 71%
- In-vivo Efficacy SD2 ([5]; 10 mg/kg sc): 53%
- In-vivo Efficacy SD9 ([5]; 10 mg/kg sc): 44%
- In-vivo Efficacy SD2 ([6]; 10 mg/kg ip): 96%
- In-vivo Efficacy SD9 ([6]; 10 mg/kg ip): 87%
- In-vivo Efficacy SD16 ([6]; 10 mg/kg ip): 83%
- In-vivo Efficacy SD23 ([6]; 10 mg/kg ip): 93%
- In-vivo Efficacy SD30 ([6]; 10 mg/kg ip): 53%
- In-vivo Efficacy SD37 ([6]; 10 mg/kg ip): 32%
- In-vivo Efficacy SD2 ([6]; 10 mg/kg sc): 72%
- In-vivo Efficacy SD9 ([6]; 10 mg/kg sc): 61%
